Results taken from patent US6441023B1 (American Home Products Corporation, priority 1997, dated 2002).

Legend:
TACE = biological target: T1, TACE (Homo sapiens, UniProt P78536); assay: Procedure for measuring TACE inhibition; assay type: biochemical
T1 construct: purchased Immunex

MMP 13 = MMP 13 (Homo sapiens, UniProt P45452); assay: MMP 13 inhibition (HTS); assay type: biochemical

T1 sequence (P78536 215-824): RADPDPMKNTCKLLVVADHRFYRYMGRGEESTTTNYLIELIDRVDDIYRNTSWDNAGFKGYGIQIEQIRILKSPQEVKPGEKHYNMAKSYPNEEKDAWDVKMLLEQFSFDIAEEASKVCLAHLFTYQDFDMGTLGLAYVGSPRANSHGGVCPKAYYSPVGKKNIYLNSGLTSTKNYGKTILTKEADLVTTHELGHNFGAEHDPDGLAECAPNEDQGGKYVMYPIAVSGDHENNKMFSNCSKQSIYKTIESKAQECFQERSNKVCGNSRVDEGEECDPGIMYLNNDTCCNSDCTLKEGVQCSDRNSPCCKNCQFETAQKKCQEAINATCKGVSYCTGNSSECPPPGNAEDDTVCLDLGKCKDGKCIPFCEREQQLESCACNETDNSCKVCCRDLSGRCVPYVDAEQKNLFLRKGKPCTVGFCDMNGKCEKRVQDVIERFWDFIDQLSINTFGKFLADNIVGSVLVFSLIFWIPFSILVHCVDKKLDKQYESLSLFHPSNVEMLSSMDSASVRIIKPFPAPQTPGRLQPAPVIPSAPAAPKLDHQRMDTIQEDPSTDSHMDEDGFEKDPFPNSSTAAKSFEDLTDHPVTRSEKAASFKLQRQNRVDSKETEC

Structure (SMILES)	inhibition at 1 µM (TACE; read-out: TACE % inhibition at 1 µM) [%]	inhibition at 0.2 µM (MMP 13; read-out: MMP 13 % inhibition at 0.2 μM (HTS), 0.2 μM) [%]	TACE % inhibition at 1 µM (TACE; 1 µM) [%]	MMP 13 % inhibition at 36 nM (HTS) (MMP 13) [%]
CC(C)C(SCCc1ccccc1)C(=O)NO (centres unmarked) [Example 117, N-Hydroxy-3-methyl-2-phenethylsulfanyl-butyramide]	8.1	7	–	–
CCCCCCC(SC1N=NN(c2ccccc2)N1)C(=O)NO (centres unmarked) [Example 174, 2-(2-Phenyl-5H-tetrazol-5-ylsulfanyl)-octanoic acid hydroxyanide]	–	–	27.7	10
CCCCCCC(C(=O)NO)S(=O)(=O)c1ccc(OS(=O)(=O)c2ccccc2[N+](=O)[O-])cc1 (centres unmarked) [Example 238, 2-Nitro-benzenesulfonic acid 4-(1-hydroxycarbamoyl-heptylsulfonyl)-hydroxyamide]	–	–	–	22
